# Where two headings read alike, the source gives them in different places.
# Columns and labels:
# [1] = test system: cortisol-producing adrenal adenoma cultures; assay: Cortisol production in primary cortisol-producing adrenal adenoma cultures; assay type: cell-based, human
# Experimental: (§1) To obtain primary cultures, adrenal specimens (adrenocortical adenomas, adrenal hyperplasias and adrenocortical carcinomas) were collected after adrenalectomy at the department of Surgery, Erasmus University Medical Center, Rotterdam, the Netherlands, between April 2016 and May 2018. The study was conducted under guidelines that have been approved by the Medical Ethics Committee of the Erasmus Medical Center and informed consent was obtained from all patients. Immediately after surgery, specimens were minced into small pieces of 2-3 mm^3, washed in culture medium and centrifuged for 5 minutes at 600 g. The tissue was stored overnight in culture medium at 4° C., where after the tissue was centrifuged again and the supernatant was removed. Fragments were dissociated using 10-25 ml collagenase type 1 (2 mg/ml: Sigma-Aldrich), followed by incubation at 37° C. for up to two hours. Ficoll (GE healthcare) density gradient separation was used once or twice as required in order to separate contaminating red blood cells from the tumor cells. Cell viability and cell amount were counted by trypan blue exclusion. Dissociated cells were plated at a density of 10^5 cells per well. ACTH-secreting corticotroph pituitary adenoma tissue from patients with Cushing's disease (n=2) was available after transsphenoidal surgery. Single-cell suspensions of the pituitary adenoma tissues were prepared as previously described in detail.
# Owing to a limited number of cells obtained from the specimens, not all experiments were carried out in every primary culture.
# (§2) Cortisol concentrations were measured in the supernatant using a chemiluminescence immunoassay system (Immulite 2000XPi; Siemens DPC Inc., Los Angeles, Calif., USA). In addition, we carried out multi-steroid analysis by liquid chromatography/mass spectrometry (LC/MS-MS) to accurately quantify androstenedione, corticosterone, cortisol, 11-deoxycortisol, DHEA, DHEAS, progesterone, 17-hydroxyprogesterone, and testosterone. Concentrations that were tested on the LC/MS-MS were closest to 50% inhibition or maximal inhibition of cortisol as determined by the immunoassay. Steroids were quantified with respect to a calibration series, with internal standards. Steroids were quantified on a Xevo TQS LC-MS/MS (Waters Chromatography).
# (§3) Statistical analysis was performed using Graphpad Prism 6.0 (Graphpad Software, San Diego, CA). Non-linear regression curve fitting program was used to calculate the half maximal inhibitory concentrations (IC50) on cortisol production. Effects of both compounds on the steroid profile were measured as absolute change compared to control and compared using the Student's t-test. When assessing differences between effects of both compounds, the percentage change was evaluated and compared in order to correct for differences in the vehicle treated control cells. Values of P<0.05 were considered statistically significant and data are presented as mean SEM.
# [2] = test system: CPA primary culture no. 2; assay: Steroid profile by LC/MS-MS in CPA primary culture no. 2; assay type: cell-based, human; conditions: for 11-DOC absolute change vs control / 11-DOC percentage change vs control / 17-OHP absolute change vs control / 17-OHP percentage change vs control / Androstenedione absolute change vs control / Androstenedione percentage change vs control / Corticosterone absolute change vs control / Corticosterone percentage change vs control / Cortisol absolute change vs control / Cortisol percentage change vs control / DHEA absolute change vs control / DHEAS absolute change vs control / Prog absolute change vs control / Prog percentage change vs control / Testosterone absolute change vs control / Testosterone percentage change vs control: CPA no. 2, Basal, 3 days
# Experimental: as §1
# Primary culture conditions for primary cultures were similar as described in the section ‘cell culture and compounds’, but with small adjustments: ACTH was used at a concentration of 85 pM (250 pg/mL), treatment was started 3-4 days after plating of the cells and cells were incubated for 3 days, and; for pituitary primary cultures, levoketoconazole and racemic ketoconazole were only tested at a concentration of 1 μM. Owing to a limited number of cells obtained from the specimens, not all experiments were carried out in every primary culture.
# as §2, §3
compound,measurement,setting,value
"CC(=O)N1CCN(c2ccc(OCC3COC(Cn4ccnc4)(c4ccc(Cl)cc4Cl)O3)cc2)CC1 (racemic) [racemic ketoconazole, Ketoconazole]",IC50,"[1]; Homo sapiens, 72 h, CPA no. 2, basal condition, 3 days, read-out: IC50 inhibition of cortisol production",266 nM
same,IC50,"[1]; Homo sapiens, 72 h, CPA no. 3, basal condition, 3 days, read-out: IC50 inhibition of cortisol production",138 nM
same,11-DOC absolute change vs control,[2]; 0.1 μM,+6.400 nmol/l
same,11-DOC percentage change vs control,[2]; 0.1 μM,(+2.4%)
same,17-OHP absolute change vs control,[2]; 0.1 μM,-0.4750 nmol/L
same,17-OHP percentage change vs control,[2]; 0.1 μM,(−2.4%)
same,Androstenedione absolute change vs control,[2]; 0.1 μM,-32.85 nmol/L
same,Androstenedione percentage change vs control,[2]; 0.1 μM,−66%
same,Corticosterone absolute change vs control,[2]; 0.1 μM,+175.8 nmol/l
same,Corticosterone percentage change vs control,[2]; 0.1 μM,+213%
same,Cortisol absolute change vs control,[2]; 0.1 μM,-92.95 nmol/L
same,Cortisol percentage change vs control,[2]; 0.1 μM,−14%
same,DHEA absolute change vs control,[2]; 0.1 μM,<LLQ
same,DHEAS absolute change vs control,[2]; 0.1 μM,<LLQ
same,Prog absolute change vs control,[2]; 0.1 μM,+0.5167 nmol/l
same,Prog percentage change vs control,[2]; 0.1 μM,(+36%)
same,Testosterone absolute change vs control,[2]; 0.1 μM,-0.3250 nmol/L
same,Testosterone percentage change vs control,[2]; 0.1 μM,(−57%)
same,Androstenedione percentage change vs control,"[2]; 0.1 μM, listed as RK",(−66%*)
same,Corticosterone percentage change vs control,"[2]; 0.1 μM, listed as RK",(+213%****)
same,Cortisol percentage change vs control,"[2]; 0.1 μM, listed as RK",(−14%**)
same,11-DOC absolute change vs control,[2]; 0.5 μM,-37.70 nmol/L
same,11-DOC percentage change vs control,[2]; 0.5 μM,(−14%***)
same,17-OHP absolute change vs control,[2]; 0.5 μM,+11.45 ± 1 nmol/l
same,17-OHP percentage change vs control,[2]; 0.5 μM,(+58%*)
same,Androstenedione absolute change vs control,[2]; 0.5 μM,-47.28 nmol/L
same,Androstenedione percentage change vs control,[2]; 0.5 μM,(−95%)
same,Corticosterone absolute change vs control,[2]; 0.5 μM,+143.8 nmol/l
same,Corticosterone percentage change vs control,[2]; 0.5 μM,(+174%*)
same,Cortisol absolute change vs control,[2]; 0.5 μM,-562.7 nmol/L
same,Cortisol percentage change vs control,[2]; 0.5 μM,(−87%)
same,DHEA absolute change vs control,[2]; 0.5 μM,<LLQ
same,DHEAS absolute change vs control,[2]; 0.5 μM,<LLQ
same,Prog absolute change vs control,[2]; 0.5 μM,+22.47 nmol/l
same,Prog percentage change vs control,[2]; 0.5 μM,(+1567%)
same,Testosterone absolute change vs control,[2]; 0.5 μM,-0.4475 nmol/L
same,Testosterone percentage change vs control,[2]; 0.5 μM,(−79%)
same,total change of steroids: increase,"[2]; CPA no. 2, basal, 0.1 μM",55.6 nmol/L
"CC(=O)N1CCN(c2ccc(OC[C@@H]3CO[C@@](Cn4ccnc4)(c4ccc(Cl)cc4Cl)O3)cc2)CC1 (relative stereo) [levoketoconazole, 2S,4R cis-1-acetyl-4-[4-[[2-(2,4-dichlorophenyl)-2-(1H-imidazol-1-ylmethyl)-1,3-dioxolan-4-yl]methoxyl]phenyl]piperazine]",IC50,"[1]; CPA no. 1, basal condition, 3 days, read-out: IC50 inhibition of cortisol production",116 nM
same,IC50,"[1]; CPA no. 2, basal condition, 3 days, read-out: IC50 inhibition of cortisol production",125 nM
same,IC50,"[1]; CPA no. 3, basal condition, 3 days, read-out: IC50 inhibition of cortisol production",140 nM
same,IC50,"[1]; CPA no. 4, basal condition, 3 days, read-out: IC50 inhibition of cortisol production",63.1 nM
same,IC50,"[1]; basal condition, ACA (n=4), read-out: mean IC50 cortisol production",110 nM
same,11-DOC absolute change vs control,[2]; 0.1 μM,+14.80 nmol/l
same,11-DOC percentage change vs control,[2]; 0.1 μM,(+5.4%)
same,17-OHP absolute change vs control,[2]; 0.1 μM,+5.125 nmol/l
same,17-OHP percentage change vs control,[2]; 0.1 μM,(+26%)
same,Androstenedione absolute change vs control,[2]; 0.1 μM,-36.68 nmol/L
same,Androstenedione percentage change vs control,[2]; 0.1 μM,−79%
same,Corticosterone absolute change vs control,[2]; 0.1 μM,+49.50 nmol/l
same,Corticosterone percentage change vs control,[2]; 0.1 μM,+54%
same,Cortisol absolute change vs control,[2]; 0.1 μM,-264.2 nmol/L
same,Cortisol percentage change vs control,[2]; 0.1 μM,−40%
same,DHEA absolute change vs control,[2]; 0.1 μM,<LLQ
same,DHEAS absolute change vs control,[2]; 0.1 μM,<LLQ
same,Prog absolute change vs control,[2]; 0.1 μM,+2.350 nmol/l
same,Prog percentage change vs control,[2]; 0.1 μM,(+138%)
same,Testosterone absolute change vs control,[2]; 0.1 μM,-0.3750 nmol/L
same,Testosterone percentage change vs control,[2]; 0.1 μM,−66%
same,Androstenedione absolute change vs control,"[2]; 0.1 μM, listed as LK",-36.68 nmol/L
same,Androstenedione percentage change vs control,"[2]; 0.1 μM, listed as LK",(−79%)
same,Corticosterone percentage change vs control,"[2]; 0.1 μM, listed as LK",(+54%)
same,Cortisol absolute change vs control,"[2]; 0.1 μM, listed as LK",-264.2 nmol/L
same,Cortisol percentage change vs control,"[2]; 0.1 μM, listed as LK",(−40%)
same,Testosterone absolute change vs control,"[2]; 0.1 μM, listed as LK",-0.3750 nmol/L
same,Testosterone percentage change vs control,"[2]; 0.1 μM, listed as LK",(−66%)
same,11-DOC absolute change vs control,[2]; 0.5 μM,-98.25 nmol/L
same,11-DOC percentage change vs control,[2]; 0.5 μM,(−36%)
same,17-OHP absolute change vs control,[2]; 0.5 μM,+21.28 nmol/l
same,17-OHP percentage change vs control,[2]; 0.5 μM,(+107%)
same,Androstenedione absolute change vs control,[2]; 0.5 μM,-45.18 nmol/L
same,Androstenedione percentage change vs control,[2]; 0.5 μM,(−97%)
same,Corticosterone absolute change vs control,[2]; 0.5 μM,+218.0 nmol/l
same,Corticosterone percentage change vs control,[2]; 0.5 μM,(+239%)
same,Cortisol absolute change vs control,[2]; 0.5 μM,-633.3 nmol/L
same,Cortisol percentage change vs control,[2]; 0.5 μM,(−96%)
same,DHEA absolute change vs control,[2]; 0.5 μM,<LLQ
same,DHEAS absolute change vs control,[2]; 0.5 μM,<LLQ
same,Prog absolute change vs control,[2]; 0.5 μM,+39.95 nmol/l
same,Prog percentage change vs control,[2]; 0.5 μM,(+2350%)
same,Testosterone absolute change vs control,[2]; 0.5 μM,-0.4725 nmol/L
same,Testosterone percentage change vs control,[2]; 0.5 μM,(−83%)
same,total change of steroids: decrease,"[2]; CPA no. 2, basal, 0.1 μM",229.5 nmol/L

# Source: patent publication US12201632B2, “Levoketoconazole for treatment of congenital adrenal hyperplasia and primary aldosteronism” (Strongbridge Dublin Limited, priority 2018, dated 2025)
